Results from patent publication US6723753B2, “Substituted n-benzyl-n-phenyl aminoalcohol compounds useful for inhibiting cholesteryl ester transfer protein activity” (Pharmacia Corporation, priority 2002, dated 2004).

Columns and labels:
CETP [1] = biological target: T1, CETP (Homo sapiens, UniProt P11597); assay: Assay of CETP Inhibition using Purified Components (Reconstituted Buffer Assay); format: biochemical; parameters: made in house; host or cells: CHO cells (serum-free conditioned medium); conditions: transfer of [3H]CE from HDL to LDL
T1 sequence (P11597 18-493): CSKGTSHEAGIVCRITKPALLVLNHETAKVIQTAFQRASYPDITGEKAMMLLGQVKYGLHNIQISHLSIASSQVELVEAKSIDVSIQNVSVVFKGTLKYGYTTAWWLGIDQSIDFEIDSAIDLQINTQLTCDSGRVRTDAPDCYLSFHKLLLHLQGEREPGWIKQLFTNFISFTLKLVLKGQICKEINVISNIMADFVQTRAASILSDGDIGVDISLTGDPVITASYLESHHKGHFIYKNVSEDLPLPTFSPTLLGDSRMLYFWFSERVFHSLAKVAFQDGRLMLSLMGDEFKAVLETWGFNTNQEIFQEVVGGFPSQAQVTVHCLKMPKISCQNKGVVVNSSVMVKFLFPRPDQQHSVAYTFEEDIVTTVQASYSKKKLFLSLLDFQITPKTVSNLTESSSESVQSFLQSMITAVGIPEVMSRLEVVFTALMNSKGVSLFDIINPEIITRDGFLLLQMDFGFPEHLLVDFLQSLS
Procedure, shortened: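 Transfer of radiolabeled cholesteryl ester from HDL to LDL was run for 2 h at 37 °C in pH 7.4 Tris buffer with 1% BSA, using purified CHO-expressed human CETP. Precipitated LDL radioactivity, measured by scintillation after dextran sulfate/MgCl2 precipitation and filtration, yielded the IC50.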

CETP [2] = biological target: T1, CETP; assay: Assay of CETP Inhibition in Human Plasma; format: biochemical; parameters: Blood was obtained from healthy volunteers, recruited from the personnel of Monsanto Company; from tissue; host or cells: human EDTA plasma pool from healthy volunteers; conditions: transfer of [3H]CE from HDL to VLDL and LDL
Experimental: Assay of CETP Inhibition in Human Plasma
Blood was obtained from healthy volunteers, recruited from the personnel of Monsanto Company, Saint Louis, Mo. Blood was collected in tubes containing EDTA (EDTA plasma pool). The EDTA human plasma pool, previously stored at −20° C., was thawed at room temperature and centrifuged for 5 minutes to remove any particulate matter. […] Equal volumes (396 μL) of the plasma containing the [^3H]CE-HDL were added by pipette into micro tubes (Titertube®, Bio-Rad laboratories, Hercules, Calif.). Inhibitor compounds, dissolved as 20-50 mM stock solutions in DMSO, were serially diluted in DMSO (or an alternative solvent in some cases, such as dimethylformamide or ethanol). Four μL of each of the serial dilutions of inhibitor compounds or DMSO alone were then added to each of the tubes containing plasma (396 μL). After mixing, triplicate aliquots (100 μL) from each plasma tube were then transferred to wells of 96-well round-bottomed polystyrene microtiter plates (Corning, Corning, N.Y.). Plates were sealed with plastic film and incubated at 37° C. for 4 hours. “Test” samples contained plasma with dilutions of inhibitor compounds. “Control” samples contained plasma with DMSO diluted to the same concentration as the test samples, but without inhibitor. “Blank” samples were prepared as “control” samples, but were left in the micro tubes at 4° C. for the 4 hour incubation and were then added to the microtiter wells at the end of the incubation period. VDL and LDL were precipitated by the addition of 10 μL of precipitating reagent (1% (w/v) dextran sulfate (Dextralip50)/0.5 M magnesium chloride, pH 7.4) to all wells. The wells were mixed on a plate mixer and then incubated at ambient temperature for 10 min. The plates were then centrifuged at 1000× g for 30 min at 10° C. The supernatants (50 μL) from each well were then transferred to Picoplate™ 96 plate wells (Packard, Meriden, Conn.) containing Microscint™-40 (Packard, Meriden, Conn.). The plates were heat-sealed (TopSeal™-P, Packard, Meriden, Conn.) according to the manufacturer's directions and mixed for 30 min. Radioactivity was measured on a microplate scintillation counter (TopCount, Packard, Meriden, Conn.). The maximum percentage transfer in the control wells (% transfer) was determined using the following equation: [formula]
The percentage of transfer relative to the control (% control) was determined in the wells containing inhibitor compounds was determined as follows: [formula]
IC50 values were then calculated from plots of % control versus concentration of inhibitor compound.

[3] = Inhibition of CETP activity in reconstituted buffer assay, read-out: IC50
[4] = Inhibition of CETP activity in human plasma assay, read-out: IC50
[5] = IC50, Inhibition of CETP activity in reconstituted buffer assay

IC50 (CETP [1]; [3]) [µM] | SMILES | other results
15 | Cc1ccc(CN(CC(O)C(F)(F)F)c2cccc(F)c2)cc1 (centres unmarked) [Example 33] | IC50 (CETP [2]; [4]): 500 µM
16 | OC(CN(Cc1cccc(C(F)(F)F)c1)c1ccccc1)C(F)(F)F (centres unmarked) [Example 35] | IC50 (CETP [2]; [4]): > 200 µM
4 | OC(CN(Cc1cccc(OC(F)(F)F)c1)c1cccc(Br)c1)C(F)(F)F (centres unmarked) [Example 36] | IC50 (CETP [2]; [4]): > 200 µM
7 | OC(CN(Cc1cccc(OC(F)(F)F)c1)c1cccc(C(F)(F)F)c1)C(F)(F)F (centres unmarked) [Example 42] | IC50 (CETP [2]; [4]): 80 µM
4 | OC(CN(Cc1cccc(OC(F)(F)C(F)F)c1)c1cccc(F)c1)C(F)(F)F (centres unmarked) [Example 43] | IC50 (CETP [2]; [4]): 110 µM
– | OC(CN(Cc1ccc(OC(F)(F)F)cc1)c1cccc(Oc2ccccc2)c1)C(F)(F)F (centres unmarked) [Example 63] | IC50 (CETP [1]; [5]): 3.5 µM; IC50 (CETP [2]; IC50, Inhibition of CETP activity in human plasma assay): 120 µM
4 | OC(CN(Cc1cccc(OC(F)(F)F)c1)c1cccc(-c2ccccc2)c1)C(F)(F)F (centres unmarked) [Example 66] | IC50 (CETP [2]; [4]): 120 µM
2 | OC(CN(Cc1cccc(OC(F)(F)C(F)F)c1)c1cc(F)ccc1F)C(F)(F)F (centres unmarked) [Example 70] | IC50 (CETP [2]; [4]): 65 µM
1.2 | OC(CN(Cc1cccc(OC(F)(F)C(F)F)c1)c1cccc(OC(F)(F)F)c1)C(F)(F)F (centres unmarked) [Example 71] | IC50 (CETP [2]; [4]): 36 µM
7 | OC(CN(Cc1ccc(C(F)(F)F)cc1)c1ccc(F)c(C(F)(F)F)c1)C(F)(F)F (centres unmarked) [Example 75] | IC50 (CETP [2]; [4]): 200 µM
6 | OC(CN(Cc1cccc(OC(F)(F)F)c1)c1ccc2ccccc2c1)C(F)(F)F (centres unmarked) [Example 76] | IC50 (CETP [2]; [4]): > 200 µM
1.5 | OC(CN(Cc1cccc(OC(F)(F)F)c1)c1ccc(-c2ccccc2)cc1)C(F)(F)F (centres unmarked) [Example 79] | IC50 (CETP [2]; [4]): 60 µM
4 | OC(CN(Cc1cccc(OC(F)(F)C(F)F)c1)c1ccc(-c2ccccc2)cc1)C(F)(F)F (centres unmarked) [Example 87] | IC50 (CETP [2]; [4]): 60 µM
– | OC(CN(Cc1cccc(-c2ccccc2C(F)(F)F)c1)c1cccc(Oc2ccccc2)c1)C(F)(F)F (centres unmarked) [Example 600, 3-[(3-phenoxyphenyl)[[2′-(trifluoromethyl)[1,1′-biphenyl]-3-yl]methyl]amino]-1,1,1-trifluoro-2-propanol] | IC50 (CETP [2]; [4]): > 100 µM
20 | OC(CN(Cc1ccc(Cl)cc1)Cc1ccc(C(F)(F)F)cc1)C(F)(F)F (centres unmarked) [compound 173] | –
> 100 | OC(CN(Cc1ccc(C(F)(F)F)cc1)Cc1ccccc1Cl)C(F)(F)F (centres unmarked) [compound 174] | –
> 100 | OC(CN(Cc1cccc(Cl)c1)Cc1ccccc1C(F)(F)F)C(F)(F)F (centres unmarked) [compound 175] | –
> 100 | OC(CN(Cc1ccc(Cl)cc1)Cc1ccccc1C(F)(F)F)C(F)(F)F (centres unmarked) [compound 176] | –
> 100 | OC(CN(Cc1ccccc1Cl)Cc1ccccc1C(F)(F)F)C(F)(F)F (centres unmarked) [compound 177] | –
> 100 | Cc1ccc(CN(Cc2cccc(F)c2)CC(O)C(F)(F)F)cc1 (centres unmarked) [compound 178] | –
> 100 | Cc1ccc(CN(Cc2ccc(F)cc2)CC(O)C(F)(F)F)cc1 (centres unmarked) [compound 179] | –
> 100 | Cc1cccc(CN(Cc2cccc(F)c2)CC(O)C(F)(F)F)c1 (centres unmarked) [compound 180] | –
> 100 | Cc1ccc(CN(Cc2ccccc2F)CC(O)C(F)(F)F)cc1 (centres unmarked) [compound 181] | –
> 100 | Cc1cccc(CN(Cc2ccc(F)cc2)CC(O)C(F)(F)F)c1 (centres unmarked) [compound 182] | –
> 100 | Cc1cccc(CN(Cc2ccccc2F)CC(O)C(F)(F)F)c1 (centres unmarked) [compound 183] | –
> 100 | OC(CN(Cc1cccc(C(F)(F)F)c1)Cc1ccccc1F)C(F)(F)F (centres unmarked) [compound 184] | –

IC50 (CETP [1]; [3]) [µM] | SMILES | other results
15 | OC(CN(Cc1cccc(Cl)c1)Cc1cccc(C(F)(F)F)c1)C(F)(F)F (centres unmarked) [compound 185] | –
15 | OC(CN(Cc1ccc(Cl)cc1)Cc1cccc(C(F)(F)F)c1)C(F)(F)F (centres unmarked) [compound 186] | –
> 100 | OC(CN(Cc1cccc(C(F)(F)F)c1)Cc1ccccc1Cl)C(F)(F)F (centres unmarked) [compound 187] | –
> 100 | OC(CN(Cc1cccc(F)c1)Cc1ccccc1C(F)(F)F)C(F)(F)F (centres unmarked) [compound 188] | –
> 100 | OC(CN(Cc1ccc(F)cc1)Cc1ccccc1C(F)(F)F)C(F)(F)F (centres unmarked) [compound 189] | –
> 100 | OC(CN(Cc1cccc(F)c1)Cc1cccc(C(F)(F)F)c1)C(F)(F)F (centres unmarked) [compound 190] | –
> 100 | OC(CN(Cc1ccc(F)cc1)Cc1cccc(C(F)(F)F)c1)C(F)(F)F (centres unmarked) [compound 191] | –
– | OC(CN(Cc1cccc(OC(F)(F)F)c1)Cc1cccc(OC(F)(F)F)c1)C(F)(F)F (centres unmarked) [compound 192] | IC50 (CETP [1]; [5]): 23 µM
10 | OC(CN(Cc1cccc(Cl)c1)Cc1cccc(OC(F)(F)F)c1)C(F)(F)F (centres unmarked) [compound 193] | –
7 | OC(CN(Cc1cccc(Br)c1)Cc1cccc(OC(F)(F)F)c1)C(F)(F)F (centres unmarked) [compound 194] | –
– | OC(CN(Cc1cccc(Oc2ccccc2)c1)Cc1cccc(OC(F)(F)F)c1)C(F)(F)F (centres unmarked) [compound 195] | IC50 (CETP [1]; [5]): 30 µM
40 | OC(CN(Cc1ccc(-c2ccccc2)cc1)Cc1cccc(OC(F)(F)F)c1)C(F)(F)F (centres unmarked) [compound 196] | –
18 | O=[N+]([O-])c1cccc(CN(Cc2cccc(OC(F)(F)F)c2)CC(O)C(F)(F)F)c1 (centres unmarked) [compound 197] | –
15 | OC(CN(CCc1cccc(F)c1)Cc1cccc(OC(F)(F)C(F)F)c1)C(F)(F)F (centres unmarked) [compound 198] | –
9.2 | COc1cc(N(Cc2cccc(C(F)(F)F)c2)CC(O)C(F)(F)F)cc(C(F)(F)F)c1 (centres unmarked) [compound 215] | –
8.1 | OC(CN(Cc1cccc(OC(F)(F)C(F)F)c1)c1cccc(Sc2ccccc2)c1)C(F)(F)F (centres unmarked) [compound 290] | –
8.4 | COc1ccc(Sc2cccc(N(Cc3cccc(OC(F)(F)C(F)F)c3)CC(O)C(F)(F)F)c2)cc1 (centres unmarked) [compound 291] | –
1.7 | CC(C)C(O)c1cccc(N(Cc2cccc(OC(F)(F)C(F)F)c2)CC(O)C(F)(F)F)c1 (centres unmarked) [compound 584] | –
4.2 | Cc1ccc(CN(CC(O)C(F)(F)F)c2cccc(Oc3ccccc3)c2)cc1-c1ccco1 (centres unmarked) [compound 594] | –
10 | CCN(C)C(=O)c1cccc(CN(CC(O)C(F)(F)F)c2cccc(Oc3ccccc3)c2)c1 (centres unmarked) [compound 613] | –
> 100 | CCCN(C)C(=O)c1cccc(CN(CC(O)C(F)(F)F)c2cccc(Oc3ccccc3)c2)c1 (centres unmarked) [compound 614] | –
> 100 | CCCCN(C)C(=O)c1cccc(CN(CC(O)C(F)(F)F)c2cccc(Oc3ccccc3)c2)c1 (centres unmarked) [compound 615] | –
18 | O=C(c1cccc(CN(CC(O)C(F)(F)F)c2cccc(Oc3ccccc3)c2)c1)N1CCCC1 (centres unmarked) [compound 616] | –
9.3 | CC(C)CC(=O)c1cccc(CN(CC(O)C(F)(F)F)c2cccc(Oc3ccccc3)c2)c1 (centres unmarked) [compound 621] | –
1.6 | OC(CN(Cc1cccc(OC(F)(F)C(F)F)c1)c1cc(Oc2ccc(F)cc2)cc(C(F)(F)F)c1)C(F)(F)F (centres unmarked) [compound 644] | –
15 | OC(CN(Cc1cccc(Cl)c1)Cc1cccc(OC(F)(F)F)c1)C(F)(F)F (centres unmarked) [compound 694] | –
